Patent US9403823B2, “Protein kinase inhibitors” (ORIBASE PHARMA, priority 2012, dated 2016)
Like-named read-outs stand apart in the source and are kept apart here. Marks after values point to notes of the source that are not given here.

Legend:
[1] = target: T1, VEGFR1 (Homo sapiens, UniProt P17948); test: In vitro kinase assay (Z'-LYTE), VEGFR1; assay type: biochemical; settings: read-out: % of inhibition of the kinase compared to the control
T1 construct: purchased Invitrogen
Experimental: (§1) 1) In Vitro Kinase Assays (Table 10 to Table 21)
(§2) The inhibitory activity of the compounds on several kinases including BRAF, EGFR (ErbB1), EGFR (ErbB1) T790M L858R, FGFR2, KDR (VEGFR2), PDGFRA (PDGFR alpha), SRC and other was evaluated by Invitrogen using the Z′-LYTE® technology. Briefly, the Z′-LYTE® biochemical assay employs a fluorescence-based, coupled-enzyme format and is based on the differential sensitivity of phosphorylated and non-phosphorylated peptides to proteolytic cleavage. The peptide substrate is labeled with two fluorophores—one at each end—that make up a FRET pair. A ratiometric method, which calculates the ratio (the Emission Ratio) of donor emission to acceptor emission after excitation of the donor fluorophore at 400 nm, is used to quantitate reaction progress.
(§3) The compounds are screened in 1% DMSO (final) in the well. For 10 point titrations, 3-fold serial dilutions are conducted from the starting concentration. All Peptide/Kinase Mixtures are diluted to a 2× working concentration in the appropriate Kinase Buffer. All ATP Solutions are diluted to a 4× working concentration in Kinase Buffer (50 mM HEPES pH 7.5, 0.01% BRIJ-35, 10 mM MgCl2, 1 mM EGTA). ATP Km apparent is previously determined using a Z′-LYTE® assay. […]

[2] = target: T2, ABL T315I (Homo sapiens, UniProt P00519, T315I); test: In vitro kinase assay (Z'-LYTE), ABL T315I; assay type: biochemical; settings: read-out: % of inhibition of the kinase compared to the control
T2 construct: purchased Invitrogen
Experimental: as §1, §2
(§4) The compounds are screened in 1% DMSO (final) in the well. For 10 point titrations, 3-fold serial dilutions are conducted from the starting concentration. All Peptide/Kinase Mixtures are diluted to a 2× working concentration in the appropriate Kinase Buffer. All ATP Solutions are diluted to a 4× working concentration in Kinase Buffer (50 mM HEPES pH 7.5, 0.01% BRIJ-35, 10 mM MgCl2, 1 mM EGTA). ATP Km apparent is previously determined using a Z′-LYTE® assay.
(§5) Each compound was incubated at a concentration of 100 nM (excepted to test the activity against ABL and ABL T315I for which the compounds were incubated at a concentration of 10 μM) and the tables 10 to 21 summarize the results obtained showing the inhibitory power of a compound.

[3] = target: T3, FGFR2 (Homo sapiens, UniProt P21802); test: In vitro kinase assay (Z'-LYTE), FGFR2; assay type: biochemical; settings: read-out: % of inhibition of the kinase compared to the control
T3 construct: purchased Invitrogen
T3 sequence (P21802 22-821): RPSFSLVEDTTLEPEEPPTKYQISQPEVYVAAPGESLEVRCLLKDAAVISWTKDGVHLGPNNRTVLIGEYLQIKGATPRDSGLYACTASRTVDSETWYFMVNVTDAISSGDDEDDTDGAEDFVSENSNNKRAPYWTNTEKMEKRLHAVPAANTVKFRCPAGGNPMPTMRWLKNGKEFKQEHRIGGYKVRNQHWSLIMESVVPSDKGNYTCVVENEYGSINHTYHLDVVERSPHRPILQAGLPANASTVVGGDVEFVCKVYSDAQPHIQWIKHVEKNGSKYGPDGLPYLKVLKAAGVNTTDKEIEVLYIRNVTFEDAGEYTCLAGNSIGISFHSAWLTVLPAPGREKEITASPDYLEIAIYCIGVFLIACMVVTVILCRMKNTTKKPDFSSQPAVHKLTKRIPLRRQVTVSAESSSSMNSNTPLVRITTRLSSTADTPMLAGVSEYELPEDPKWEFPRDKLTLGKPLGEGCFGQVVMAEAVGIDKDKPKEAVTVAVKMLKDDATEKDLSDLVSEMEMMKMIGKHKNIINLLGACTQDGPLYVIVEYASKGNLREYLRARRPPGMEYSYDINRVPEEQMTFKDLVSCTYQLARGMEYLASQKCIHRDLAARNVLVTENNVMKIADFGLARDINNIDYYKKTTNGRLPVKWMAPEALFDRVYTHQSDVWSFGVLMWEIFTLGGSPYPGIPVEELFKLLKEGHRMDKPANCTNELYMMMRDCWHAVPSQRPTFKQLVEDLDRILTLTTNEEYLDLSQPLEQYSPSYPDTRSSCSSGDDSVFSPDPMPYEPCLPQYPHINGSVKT
How it was run: (§6)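 Peptide/kinase mix and ATP (at apparent Km) were combined in kinase buffer with compound at 100 nM, or 10 μM against ABL and its T315I mutant. Non-phosphorylated peptide was then proteolytically cleaved, and donor-to-acceptor emission ratio gave the extent of phosphorylation.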

[4] = system: BxPC-3 cell line; test: In vitro cell proliferation assay (MTT), BxPC-3; assay type: cell-based; settings: Homo sapiens, read-out: EC50, anti-proliferative activity
Experimental: (§7) 2) In Vitro Cell Proliferation Assays (Table 22 to Table 35)
(§8) Cancer cell lines (5×10^3 cells per well) or HUVEC (1×10^4 cells per well) or HRMEC (1×10^4 cells per well) were distributed in 96-well plates and incubating in duplicate with escalating concentrations (10 nM to 3 μM) of compounds for 72 hr. Cell proliferation was measured using MTT (3[4,5-dimethylthiazol-2-yl]-2,5-diphenyltetrazolium bromide).

[5] = target: T4, ABL (Homo sapiens, UniProt P00519); test: In vitro kinase assay (Z'-LYTE), ABL; assay type: biochemical; settings: read-out: % of inhibition of the kinase compared to the control
T4 construct: purchased Invitrogen
Experimental: as §1, §2, §4, §5

[6] = system: A549 cell line; test: In vitro cell proliferation assay (MTT), A549; assay type: cell-based; settings: Homo sapiens, read-out: EC50, anti-proliferative activity
How it was run: (§9)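 Seed cells (HRMEC 1×10^4/well; cancer lines 5×10^3/well), add compounds at escalating concentrations from 10 nM to 3 μM in duplicate, incubate 72 hr, then measure proliferation with MTT.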

[7] = target: T5, KDR (VEGFR2) (Homo sapiens, UniProt P35968); test: In vitro kinase assay (Z'-LYTE), KDR (VEGFR2); assay type: biochemical; settings: read-out: % of inhibition of the kinase compared to the control
T5 construct: purchased Invitrogen
T5 sequence (P35968 20-1356): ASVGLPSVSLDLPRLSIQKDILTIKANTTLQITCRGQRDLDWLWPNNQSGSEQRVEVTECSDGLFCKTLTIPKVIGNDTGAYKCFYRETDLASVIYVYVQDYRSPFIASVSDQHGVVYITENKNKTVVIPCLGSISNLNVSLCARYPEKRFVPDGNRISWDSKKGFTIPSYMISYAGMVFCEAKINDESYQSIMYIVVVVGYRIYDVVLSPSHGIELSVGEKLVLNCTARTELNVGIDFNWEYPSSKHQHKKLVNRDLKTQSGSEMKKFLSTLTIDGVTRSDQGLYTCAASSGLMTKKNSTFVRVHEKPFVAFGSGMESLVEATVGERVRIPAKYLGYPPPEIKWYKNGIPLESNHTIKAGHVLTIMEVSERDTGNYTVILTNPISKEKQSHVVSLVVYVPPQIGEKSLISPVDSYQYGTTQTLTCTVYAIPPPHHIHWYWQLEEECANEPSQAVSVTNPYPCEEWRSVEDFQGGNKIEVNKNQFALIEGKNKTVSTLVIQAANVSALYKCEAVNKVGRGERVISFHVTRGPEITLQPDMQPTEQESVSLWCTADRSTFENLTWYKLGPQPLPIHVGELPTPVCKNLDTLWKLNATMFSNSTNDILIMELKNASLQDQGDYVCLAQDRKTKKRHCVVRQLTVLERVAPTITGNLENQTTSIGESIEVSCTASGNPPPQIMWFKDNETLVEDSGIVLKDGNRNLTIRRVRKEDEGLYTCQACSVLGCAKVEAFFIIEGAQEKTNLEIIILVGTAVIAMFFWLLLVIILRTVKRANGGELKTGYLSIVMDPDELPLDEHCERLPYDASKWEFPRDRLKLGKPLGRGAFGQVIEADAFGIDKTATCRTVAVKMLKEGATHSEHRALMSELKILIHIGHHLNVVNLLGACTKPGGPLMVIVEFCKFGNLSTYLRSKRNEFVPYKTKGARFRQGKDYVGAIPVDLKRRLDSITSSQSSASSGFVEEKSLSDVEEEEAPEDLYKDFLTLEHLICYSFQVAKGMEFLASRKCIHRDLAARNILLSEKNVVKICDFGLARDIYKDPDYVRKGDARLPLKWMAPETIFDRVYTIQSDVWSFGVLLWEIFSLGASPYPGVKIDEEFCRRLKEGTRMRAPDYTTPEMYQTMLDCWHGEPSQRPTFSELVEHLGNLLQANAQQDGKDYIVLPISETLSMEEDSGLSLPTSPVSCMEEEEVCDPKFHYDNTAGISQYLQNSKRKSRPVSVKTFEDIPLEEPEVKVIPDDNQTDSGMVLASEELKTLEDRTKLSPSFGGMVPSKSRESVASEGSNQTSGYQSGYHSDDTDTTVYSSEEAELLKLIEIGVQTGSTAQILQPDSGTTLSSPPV
How it was run: as §6

[8] = target: T6, EGFR (ErbB1) T790M L858R (Homo sapiens, UniProt P00533, L858R/T790M); test: In vitro kinase assay (Z'-LYTE), EGFR (ErbB1) T790M L858R; assay type: biochemical; settings: read-out: % of inhibition of the kinase compared to the control
T6 construct: purchased Invitrogen
How it was run: as §6

[9] = target: T7, EGFR (ErbB1) (Homo sapiens, UniProt P00533); test: In vitro kinase assay (Z'-LYTE), EGFR (ErbB1); assay type: biochemical; settings: read-out: % of inhibition of the kinase compared to the control
T7 construct: purchased Invitrogen
How it was run: as §6

[10] = target: T8, BRAF (Homo sapiens, UniProt P15056); test: In vitro kinase assay (Z'-LYTE), BRAF; assay type: biochemical; settings: read-out: % of inhibition of the kinase compared to the control
T8 construct: purchased Invitrogen
T8 sequence (P15056 whole entry): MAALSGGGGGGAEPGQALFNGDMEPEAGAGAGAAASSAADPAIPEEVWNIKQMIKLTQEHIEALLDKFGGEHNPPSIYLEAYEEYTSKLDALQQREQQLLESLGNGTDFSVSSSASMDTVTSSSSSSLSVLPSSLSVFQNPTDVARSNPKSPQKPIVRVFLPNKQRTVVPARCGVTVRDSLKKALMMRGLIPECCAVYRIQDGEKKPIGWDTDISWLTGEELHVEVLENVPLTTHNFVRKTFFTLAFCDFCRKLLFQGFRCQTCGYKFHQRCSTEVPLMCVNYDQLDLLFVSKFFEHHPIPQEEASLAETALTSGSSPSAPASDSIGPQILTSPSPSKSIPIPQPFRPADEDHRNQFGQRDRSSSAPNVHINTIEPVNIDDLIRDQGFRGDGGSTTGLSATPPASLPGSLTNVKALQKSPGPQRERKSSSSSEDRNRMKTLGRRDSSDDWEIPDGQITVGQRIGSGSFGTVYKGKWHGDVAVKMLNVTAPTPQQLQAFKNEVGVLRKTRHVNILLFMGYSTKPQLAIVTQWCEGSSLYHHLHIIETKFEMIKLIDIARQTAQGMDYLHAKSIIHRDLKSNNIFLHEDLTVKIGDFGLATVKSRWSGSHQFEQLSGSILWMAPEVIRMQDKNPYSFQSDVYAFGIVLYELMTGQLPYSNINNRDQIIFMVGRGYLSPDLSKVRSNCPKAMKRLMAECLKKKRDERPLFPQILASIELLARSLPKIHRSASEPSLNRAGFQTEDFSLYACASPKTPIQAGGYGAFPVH
How it was run: as §6

[11] = target: T9, PDGFRA (PDGFR alpha) (Homo sapiens, UniProt P16234); test: In vitro kinase assay (Z'-LYTE), PDGFRA; assay type: biochemical; settings: read-out: % of inhibition of the kinase compared to the control
T9 construct: purchased Invitrogen
T9 sequence (P16234 24-1089): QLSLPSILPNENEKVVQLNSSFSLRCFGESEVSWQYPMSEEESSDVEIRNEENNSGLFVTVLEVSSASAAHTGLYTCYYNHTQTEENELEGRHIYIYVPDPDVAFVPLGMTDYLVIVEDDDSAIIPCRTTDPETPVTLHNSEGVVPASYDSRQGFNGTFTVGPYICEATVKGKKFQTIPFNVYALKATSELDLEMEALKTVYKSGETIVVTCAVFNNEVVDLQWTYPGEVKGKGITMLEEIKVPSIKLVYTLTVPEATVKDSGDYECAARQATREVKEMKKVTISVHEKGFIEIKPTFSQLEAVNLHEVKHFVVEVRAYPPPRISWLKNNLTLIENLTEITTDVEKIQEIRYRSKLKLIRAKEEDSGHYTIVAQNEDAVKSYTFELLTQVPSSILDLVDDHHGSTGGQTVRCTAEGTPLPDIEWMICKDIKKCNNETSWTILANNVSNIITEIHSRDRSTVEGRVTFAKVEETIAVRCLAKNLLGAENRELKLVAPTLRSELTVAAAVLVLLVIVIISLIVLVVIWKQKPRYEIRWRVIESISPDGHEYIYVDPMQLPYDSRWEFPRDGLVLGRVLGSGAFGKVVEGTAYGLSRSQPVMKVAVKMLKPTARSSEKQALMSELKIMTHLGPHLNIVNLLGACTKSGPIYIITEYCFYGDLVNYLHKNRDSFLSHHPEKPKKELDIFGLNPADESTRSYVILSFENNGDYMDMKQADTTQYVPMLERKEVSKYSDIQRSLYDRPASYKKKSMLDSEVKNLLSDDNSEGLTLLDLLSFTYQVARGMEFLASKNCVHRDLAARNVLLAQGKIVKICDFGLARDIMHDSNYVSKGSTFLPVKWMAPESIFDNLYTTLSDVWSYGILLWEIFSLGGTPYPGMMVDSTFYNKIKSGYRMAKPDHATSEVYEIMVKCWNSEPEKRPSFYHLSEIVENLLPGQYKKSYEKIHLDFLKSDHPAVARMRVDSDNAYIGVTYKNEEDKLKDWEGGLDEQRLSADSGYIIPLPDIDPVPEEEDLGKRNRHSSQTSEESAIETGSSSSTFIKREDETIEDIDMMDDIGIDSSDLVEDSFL
How it was run: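 Single-point screening used 100 nM compound for VEGFR1 and PDGFRA, 10 μM for wild-type and T315I ABL. Activity was scored via Z'-LYTE emission ratio.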

[12] = target: T10, FGFR1 (Homo sapiens, UniProt P11362); test: In vitro kinase assay (Z'-LYTE), FGFR1; assay type: biochemical; settings: read-out: % of inhibition of the kinase compared to the control
T10 construct: purchased Invitrogen
Experimental: as §1, §2, §3

[13] = target: T11, PDGFRB (Homo sapiens, UniProt P09619); test: In vitro kinase assay (Z'-LYTE), PDGFRB; assay type: biochemical; settings: read-out: % of inhibition of the kinase compared to the control
T11 construct: purchased Invitrogen
Experimental: as §1, §2, §3

[14] = target: T12, SRC (Homo sapiens, UniProt P12931); test: In vitro kinase assay (Z'-LYTE), SRC; assay type: biochemical; settings: read-out: % of inhibition of the kinase compared to the control
T12 construct: purchased Invitrogen
T12 sequence (P12931 whole entry): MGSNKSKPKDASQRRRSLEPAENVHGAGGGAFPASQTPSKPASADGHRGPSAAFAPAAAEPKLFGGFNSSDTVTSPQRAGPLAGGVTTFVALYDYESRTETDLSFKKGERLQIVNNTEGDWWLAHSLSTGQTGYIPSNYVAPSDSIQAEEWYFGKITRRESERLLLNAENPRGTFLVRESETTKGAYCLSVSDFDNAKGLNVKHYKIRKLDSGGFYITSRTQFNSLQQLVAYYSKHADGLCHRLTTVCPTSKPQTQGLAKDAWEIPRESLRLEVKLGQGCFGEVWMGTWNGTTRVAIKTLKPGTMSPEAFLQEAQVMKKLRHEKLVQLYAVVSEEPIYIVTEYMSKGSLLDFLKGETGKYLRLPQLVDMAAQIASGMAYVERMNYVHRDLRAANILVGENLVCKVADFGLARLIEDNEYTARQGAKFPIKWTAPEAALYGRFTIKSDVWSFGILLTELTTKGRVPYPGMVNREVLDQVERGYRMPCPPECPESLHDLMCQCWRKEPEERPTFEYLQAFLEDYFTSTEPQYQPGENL
How it was run: as §6

[15] = system: PC3 cell line; test: In vitro cell proliferation assay (MTT), PC3; assay type: cell-based; settings: Homo sapiens, PC-3, 72 h; read-out: EC50, anti-proliferative activity
Experimental: as §7, §8

[16] = system: HepG2 cell line; test: In vitro cell proliferation assay (MTT), HepG2; assay type: cell-based; settings: Homo sapiens, HepG2, 72 h; read-out: EC50, anti-proliferative activity
How it was run: as §9

[17] = system: HepG2 cells; test: Human hepatocellular carcinoma mouse model (HepG2 xenograft); assay type: in vivo, athymic nude male mice; settings: 20 mg/kg q.d. per os for 15 consecutive days; for Anti-tumor activity (Tumor Growth Inhibition—TGI): mice, HepG2 xenograft, end of study vs vehicle
Experimental: 3) In Vivo Studies (Table 36)
Human hepatocellular carcinoma mouse model was prepared by subcutaneously implanting HepG2 cells (1×10^7 cell/mL in sterile PBS), into the right flank of athymic nude male mice (HSD, 6-7 weeks old). When the tumor volume reached approximately 200 mm^3, mice were assigned randomly to either vehicle alone or ORB compounds treatment groups (six mice per group). Mice were treated with either vehicle (PEG400) or OR0720, OR0721, OR0811 (20 mg/kg q.d.; per os for 15 consecutive days).
Tumor volumes in mm^3 were determined three times a week with a digital caliper and calculated using the following formula: Tumor Volume (mm)=length (mm)×width (mm)×width (mm)×½. Body weight was measured three times a week, and mice were observed daily for monitoring signs of stress to detect possible toxicities. One-way ANOVA was used for statistical comparisons. Data were analyzed with Prism 5.0 b (GraphPad Software) by one-way ANOVA with Bonferroni post hoc. Tumor Growth Inhibition (TGI) is calculated as the percent decrease of tumor growth at the end of the study in the ORB compounds treatment groups in comparison to the vehicle alone treatment group.

[18] = system: Caki-2; test: In vitro cell proliferation assay (MTT), Caki-2; assay type: cell-based; settings: Homo sapiens, read-out: EC50, anti-proliferative activity
Experimental: as §7, §8

[19] = system: H1975 cell line; test: In vitro cell proliferation assay (MTT), H1975; assay type: cell-based; settings: Homo sapiens, read-out: EC50, anti-proliferative activity
How it was run: as §9

[20] = system: MDA-MB-231 cell line; test: In vitro cell proliferation assay (MTT), MDA-MB-231; assay type: cell-based; settings: Homo sapiens, MDA-MB-231, 72 h; read-out: EC50, anti-proliferative activity
How it was run: as §9

[21] = system: HT29 cell line; test: In vitro cell proliferation assay (MTT), HT29; assay type: cell-based; settings: Homo sapiens, read-out: EC50, anti-proliferative activity
How it was run: as §9

[22] = system: HuCCT1 cell line; test: In vitro cell proliferation assay (MTT), HuCCT1; assay type: cell-based; settings: Homo sapiens, read-out: EC50, anti-proliferative activity
How it was run: as §9

[23] = system: HRMEC cells; test: In vitro cell proliferation assay (MTT), HRMEC; assay type: cell-based; settings: read-out: EC50, anti-proliferative activity
Experimental: as §7, §8

[24] = system: HuH6 Clone 5 cell line; test: In vitro cell proliferation assay (MTT), HuH6 Clone 5; assay type: cell-based; settings: read-out: EC50, anti-proliferative activity
How it was run: as §9

[25] = system: HUVEC; test: In vitro cell proliferation assay (MTT), HUVEC; assay type: cell-based; settings: Homo sapiens, 72 h, read-out: EC50, anti-proliferative activity
How it was run: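 HUVEC cells were plated at 1×10^4 cells per well in 96-well plates and exposed in duplicate to increasing compound concentrations from 10 nM to 3 μM for 72 hr. Proliferation was then quantified with MTT (3[4,5-dimethylthiazol-2-yl]-2,5-diphenyltetrazolium bromide) to determine anti-proliferative activity.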

[26] = system: HeLa cell line; test: In vitro cell proliferation assay (MTT), HeLa; assay type: cell-based; settings: Homo sapiens, 72 h, read-out: EC50, anti-proliferative activity
How it was run: as §9

[27] = system: HuH7 cell line; test: In vitro cell proliferation assay (MTT), HuH7; assay type: cell-based; settings: Homo sapiens, Huh-7, 72 h; read-out: EC50, anti-proliferative activity
How it was run: as §9

SMILES	inhibition at 0.1 µM [3]	EC50 ([6]; A549, 72 hr, MTT)	inhibition at 0.1 µM [7]	inhibition at 0.1 µM [8]	inhibition at 0.1 µM [9]	inhibition at 0.1 µM [10]	inhibition at 0.1 µM [11]	inhibition at 0.1 µM [14]	EC50 [15]	EC50 [16]	tumor growth in xenografted mice bearing human hepatocellular carcinoma tumors [17]	Anti-tumor activity (Tumor Growth Inhibition—TGI) [17]	EC50 ([4]; BXPC-3, 72 h)	EC50 [20]	EC50 [25]	EC50 [27]	also measured
Cc1cn(-c2cc(C(=O)Nc3ccc(C)c(CNc4cnc5[nH]c(C(=O)O)cc5c4)c3)cc(C(F)(F)F)c2)cn1 [OR0653, 5-{2-Methyl-5-[3-(4-methyl-imidazol-1-yl)-5-trifluoromethyl-benzoylamino]-benzylamino}-1H-pyrrolo[2,3-b]pyridine-2-carboxylic acid]	< 50%	≥ 1 µM	≥ 50%	≥ 50%	≥ 50%	< 50%	≥ 50%	≥ 50%									inhibition at 0.1 µM [1]: ≥ 50%; inhibition at 10 µM [2]: < 50%; EC50 ([4]; BxPC-3, 72 hr, MTT): ≥ 1 µM; inhibition at 10 µM [5]: ≥ 50%; inhibition at 0.1 µM [12]: < 50%; inhibition at 0.1 µM [13]: < 50%
CC(=O)c1cc2cc(NCc3cc(NC(=O)c4ccc(CN5CCN(C)CC5)c(C(F)(F)F)c4)ccc3C)cnc2[nH]1 [OR0720, N-{3-[(2-Acetyl-1H-pyrrolo[2,3-b]pyridin-5-ylamino)-methyl]-4-methyl-phenyl}-4-(4-methyl-piperazin-1-ylmethyl)-3-trifluoromethyl-benzamide]	≥ 50%		≥ 50%	≥ 50%	≥ 50%	≥ 50%	≥ 50%	≥ 50%	≤ 0.1 µM	≤ 0.1 µM	significantly induced a decrease of tumor growth	66%*	≤ 0.1 µM	≤ 0.1 µM	≤ 0.1 µM	0.1 to 1 µM	EC50 ([18]; CAKI-2, 72 h): 0.1 to 1 µM; EC50 ([19]; NCI-H1975, 72 h): 0.1 to 1 µM; EC50 ([6]; A549, 72 h): ≤ 0.1 µM; EC50 ([21]; HT-29, 72 h): ≤ 0.1 µM; EC50 ([22]; HuCCT-1, 72 h): 0.1 to 1 µM; EC50 ([23]; 72 h): ≤ 0.1 µM; EC50 ([24]; HUH-6-clone5, 72 h): 0.1 to 1 µM; EC50 [26]: 0.1 to 1 µM
CC(=O)c1cc2cc(NCc3cc(NC(=O)c4cncc(C(F)(F)F)c4)ccc3C)cnc2[nH]1 [OR0721, N-{3-[(2-Acetyl-1H-pyrrolo[2,3-b]pyridin-5-ylamino)-methyl]-4-methyl-phenyl}-5-trifluoromethyl-nicotinamide]	< 50%	≥ 1 µM	≥ 50%	< 50%	< 50%	≥ 50%	≥ 50%	≥ 50%	0.1 to 1 µM	≤ 0.1 µM	significantly induced a decrease of tumor growth	54%*	0.1 to 1 µM	0.1 to 1 µM	0.1 to 1 µM	0.1 to 1 µM	EC50 ([18]; Caki-2, 72 hr, MTT): ≥ 1 µM; EC50 ([19]; NCI-H1975, H1975, 72 hr, MTT): ≥ 1 µM; EC50 ([21]; HT-29, HT29, 72 hr, MTT): ≥ 1 µM; EC50 ([22]; HuCCT-1, HuCCT1, 72 hr, MTT): ≥ 1 µM; EC50 ([23]; 72 hr, MTT): ≥ 1 µM; EC50 ([24]; HUH-6-clone5, HuH6 Clone 5, 72 hr, MTT): ≥ 1 µM
